Assay results: article PMC11586411 (Translational Psychiatry, 2023)

Molecular target: T1, kappa-opioid receptor (KOP) (Homo sapiens, UniProt P41145)
T1 construct: gene OPRK1
Test: FLIM in live cells: blocks the dynorphin A-induced change of KOP-eGFP lifetime
Assay type: cell-based

T1 sequence (P41145 whole entry): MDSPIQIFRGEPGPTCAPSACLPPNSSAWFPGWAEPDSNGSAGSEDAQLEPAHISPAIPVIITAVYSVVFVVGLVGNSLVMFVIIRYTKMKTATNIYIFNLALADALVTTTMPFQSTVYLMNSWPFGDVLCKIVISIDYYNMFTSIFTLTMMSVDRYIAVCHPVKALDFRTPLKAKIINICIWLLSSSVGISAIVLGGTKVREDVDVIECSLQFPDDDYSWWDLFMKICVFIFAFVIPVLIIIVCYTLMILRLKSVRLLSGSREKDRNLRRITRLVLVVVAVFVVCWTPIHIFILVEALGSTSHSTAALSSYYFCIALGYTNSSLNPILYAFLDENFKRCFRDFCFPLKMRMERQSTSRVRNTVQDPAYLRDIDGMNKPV

`CC(C)[C@@H](CN1CC[C@@](C)(c2cccc(O)c2)[C@@H](C)C1)NC(=O)[C@H]1Cc2ccc(O)cc2CN1` [JDTic] was tested. Which “FLIM in live cells: blocks the dynorphin A-induced change of KOP-eGFP lifetime” value did it give?
The value was “both NTX and the KOP-selective antagonist JDTic blocked this effect, suggesting that DynA binds to KOP-eGFP”.
